This is an account of results in patent US11833156B2, “Heterocyclic compounds as pad inhibitors” (JUBILANT EPIPAD LLC, priority 2017, dated 2023).

Structures can show the parent of a compound that is named as a salt.

This assay has as its target PAD4 enzyme (Homo sapiens (Human), UniProt Q9UM07). Nature of the assay: Ammonia Release Biochemical Assay (citrullination detected via ammonia release). The settings on record: PAD4 120 nM, substrate BAEE, 60-min preincubation, read-out: NH3 release. The protocol:
Ammonia Release Biochemical Assay
Citrullination assay was detected via ammonia release. PAD4 enzyme was diluted to 120 nM in assay buffer (100 mM HEPES, 50 mM NaCl, 2 mM DDT, 0.6 mg/mL BSA, pH 7.4) added to wells containing various concentration of compound or DMSO vehicle (1% final) in black 384 well plate. Following a 60-min preincubation at room temperature, the reaction was initiated by the addition of substrate (1.5 mM BAEE in 200 mM HEPES, 50 mM NaCl, 350 uM CaCl2, 2 mM, pH 7.4). The reaction was stopped after 60 min by addition of stop/detection buffer containing 50 mM EDTA, 2.6 mM of o-phthaladehyde and 2.6 mM DTT. Assay was incubated at room temperature for 90 min before measuring fluorescence's (λex 405/λem 460 nm) on Tecan reader. IC50 was calculated using XL-fit software model 205. (Ref: Nat Chem Biol. 2015 March; 11(3):189-91).

Chain of PAD4 enzyme (Q9UM07 whole entry): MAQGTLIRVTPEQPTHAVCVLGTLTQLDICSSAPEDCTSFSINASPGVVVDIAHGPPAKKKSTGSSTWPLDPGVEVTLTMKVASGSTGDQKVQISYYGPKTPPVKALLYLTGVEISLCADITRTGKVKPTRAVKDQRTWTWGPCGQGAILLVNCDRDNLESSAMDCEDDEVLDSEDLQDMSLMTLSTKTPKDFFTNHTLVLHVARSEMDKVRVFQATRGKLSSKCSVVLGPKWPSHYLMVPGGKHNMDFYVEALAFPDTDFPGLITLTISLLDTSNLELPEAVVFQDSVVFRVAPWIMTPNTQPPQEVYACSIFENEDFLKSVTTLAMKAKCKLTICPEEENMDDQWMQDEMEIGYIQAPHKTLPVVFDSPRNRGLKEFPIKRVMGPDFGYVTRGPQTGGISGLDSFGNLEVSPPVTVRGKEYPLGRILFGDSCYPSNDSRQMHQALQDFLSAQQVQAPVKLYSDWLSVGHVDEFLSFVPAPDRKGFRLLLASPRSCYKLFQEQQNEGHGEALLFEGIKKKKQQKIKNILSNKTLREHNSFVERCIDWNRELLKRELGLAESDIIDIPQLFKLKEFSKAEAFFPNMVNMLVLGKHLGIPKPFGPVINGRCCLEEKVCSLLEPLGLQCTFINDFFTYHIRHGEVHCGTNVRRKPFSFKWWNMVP

Take `N[C@@H]1CCCN(C(=O)c2cc3c4c(c2)nc(-c2cc5ccccc5n2CC2CC2)n4CCN3S(=O)(=O)C2CC2)C1` [Example 82, (R)-(3-aminopiperidin-1-yl)(2-(1-(cyclopropylmethyl)-1H-indol-2-yl)-6-(cyclopropylsulfonyl)-5,6-dihydro-4H-imidazo[1,5,4-de]quinoxalin-8-yl)methanone]: the IC50 was in the range of 1000 to 10000 nM. Under `N[C@@H]1CCCN(C(=O)c2cc3c4c(c2)nc(-c2cc5ccc(F)c(Cl)c5n2CC2CC2)n4CCO3)C1` [Example 87, (R)-(3-aminopiperidin-1-yl)(2-(7-chloro-1-(cyclopropylmethyl)-6-fluoro-1H-indol-2-yl)-3,4-dihydro-5-oxa-1,2a-diazaacenaphthylen-7-yl)methanone] stands not above 1000 nM. Under `CC(=O)N1CCn2c(-c3cc4ccccc4n3CC3CC3)nc3cc(C(=O)N4CCC[C@@H](N)C4)cc1c32` [Example 85] stands not above 1000 nM.

In the case of `COc1ccc2cc(-c3nc4cc(C(=O)N5CCC[C@@H](N)C5)cc5c4n3CCO5)n(CC3CC3)c2c1` [Example 23, (R)-(3-aminopiperidin-1-yl)(2-(1-(cyclopropylmethyl)-6-methoxy-1H-indol-2-yl)-3,4-dihydro-5-oxa-1,2a-diazaacenaphthylen-7-yl)methanone], the IC50 is not above 1000 nM.

Consider `CN1CCn2c(-c3cc4cc(F)ccc4n3CC3CC3)nc3cc(C(=O)N4CCC[C@@H](N)C4)cc1c32` [Example 75, (R)-(3-aminopiperidin-1-yl)(2-(1-(cyclopropylmethyl)-5-fluoro-1H-indol-2-yl)-6-methyl-5,6-dihydro-4H-imidazo[1,5,4-de]quinoxalin-8-yl)methanone], for which the IC50 was not above 1000 nM. For `CCOCCS(=O)(=O)N1CCn2c(-c3cc4ccccc4n3CC3CC3)nc3cc(C(=O)N4CCC[C@@H](N)C4)cc1c32` [Example 83, (R)-(3-aminopiperidin-1-yl)(2-(1-(cyclopropylmethyl)-1H-indol-2-yl)-6-((2-ethoxyethyl)sulfonyl)-5,6-dihydro-4H-imidazo[1,5,4-de]quinoxalin-8-yl)methanone], the IC50 is 1000 to 10000 nM. In the case of `COc1ccc(Cn2c(-c3nc4cc(C(=O)N5CCC[C@@H](N)C5)cc5c4n3CCO5)cc3cc(F)ccc32)cc1` [Example 46, (R)-(3-aminopiperidin-1-yl)(2-(5-fluoro-1-(4-methoxybenzyl)-1H-indol-2-yl)-3,4-dihydro-5-oxa-1,2a-diazaacenaphthylen-7-yl)methanone], the IC50 is not above 1000 nM. With `COc1ccc2cc(-c3nc4cc(C(=O)N5CCC[C@@H](N)C5)cc5c4n3CCN5C)n(CC3CC3)c2c1` [Example 74, (R)-(3-aminopiperidin-1-yl)(2-(1-(cyclopropylmethyl)-6-methoxy-1H-indol-2-yl)-6-methyl-5,6-dihydro-4H-imidazo[1,5,4-de]quinoxalin-8-yl)methanone], the IC50 is not above 1000 nM. Under `N[C@@H]1CCCN(C(=O)c2cc3c4c(c2)nc(-c2cc5cc(-c6cccnc6)ccc5n2CC2CC2)n4CCN3)C1` [Example 68, (R)-(3-aminopiperidin-1-yl)(2-(1-(cyclopropylmethyl)-5-(pyridin-3-yl)-1H-indol-2-yl)-5,6-dihydro-4H-imidazo [1,5,4-de]quinoxalin-8-yl)methanone] stands 1000 to 10000 nM. For the compound `N[C@@H]1CCCN(C(=O)c2cc3c4c(c2)nc(-c2cc5ccc(F)cc5n2CC2CC2)n4CCO3)C1` [Example 28, (R)-(3-aminopiperidin-1-yl)(2-(1-(cyclopropylmethyl)-6-fluoro-1H-indol-2-yl)-3,4-dihydro-5-oxa-1,2a-diazaacenaphthylen-7-yl)methanone], the IC50 is not above 1000 nM. For `N[C@@H]1CCCN(C(=O)c2cc3c4c(c2)nc(-c2cc5ccccc5n2Cc2ccncc2F)n4CCO3)C1` [Example 24, (R)-(3-aminopiperidin-1-yl)(2-(1-((3-fluoropyridin-4-yl)methyl)-1H-indol-2-yl)-3,4-dihydro-5-oxa-1,2a-diazaacenaphthylen-7-yl)methanone], the IC50 was not above 1000 nM. Under `N[C@@H]1CCCN(C(=O)c2cc3c4c(c2)nc(-c2cc5cc(F)c(F)cc5n2CC2CC2)n4CCO3)C1` [Example 32, (R)-(3-aminopiperidin-1-yl)(2-(1-(cyclopropylmethyl)-5,6-difluoro-1H-indol-2-yl)-3,4-dihydro-5-oxa-1,2a-diazaacenaphthylen-7-yl)methanone] stands not above 1000 nM; under `N[C@@H]1CCCN(C(=O)c2cc3c4c(c2)nc(-c2cc5ccccc5n2Cc2ccc(CO)cc2)n4CCO3)C1` [Example 37, (R)-(3-aminopiperidin-1-yl)(2-(1-(4-(hydroxymethyl)benzyl)-1H-indol-2-yl)-3,4-dihydro-5-oxa-1,2a-diazaacenaphthylen-7-yl)methanone trifluoroacetic acid salt], not above 1000 nM. Under `N[C@@H]1CCCN(C(=O)c2cc3c4c(c2)nc(-c2cc5ccccc5n2CC(=O)O)n4CCO3)C1` [Example 42, (R)-2-(2-(7-(3-aminopiperidine-1-carbonyl)-3,4-dihydro-5-ox 1,2a-diazaacenaphthylen-2-yl)-1H-indol-1-yl)acetic acid] stands not below 10000 nM; under `N[C@@H]1CCCN(C(=O)c2cc3c4c(c2)nc(-c2cc5ccccc5n2Cc2cnccn2)n4CCO3)C1` [Example 25, (R)-(3-aminopiperidin-1-yl)(2-(1-(pyrazin-2-ylmethyl)-1H-indol-2-yl)-3,4-dihydro-5-oxa-1,2a-diazaacenaphthylen-7-yl)methanone], not above 1000 nM; under `N[C@@H]1CCCN(C(=O)c2cc3c4c(c2)nc(-c2cc5ccc(F)cc5n2Cc2ncccc2F)n4CCO3)C1` [Example 35, (R)-(3-aminopiperidin-1-yl)(2-(6-fluoro-1-((3-fluoropyridin-2-yl)methyl)-1H-indol-2-yl)-3,4-dihydro-5-oxa-1,2a-diazaacenaphthylen-7-yl)methanone], not above 1000 nM. Under `CC(C)Cn1c(-c2nc3cc(C(=O)N4CCC[C@@H](N)C4)cc4c3n2CCO4)cc2cccc(Cl)c21` [Example 55, (R)-(3-aminopiperidin-1-yl)(2-(7-chloro-1-isobutyl-1H-indol-2-yl)-3,4-dihydro-5-oxa-1,2a-diazaacenaphthylen-7-yl)methanone] stands not above 1000 nM. On to `COCCn1c(-c2nc3cc(C(=O)N4CCC[C@@H](N)C4)cc4c3n2CCO4)cc2ccc(OC)cc21` [Example 21, (R)-(3-aminopiperidin-1-yl)(2-(6-methoxy-1-(2-methoxyethyl)-1H-indol-2-yl)-3,4-dihydro-5-oxa-1,2a-diazaacenaphthylen-7-yl)methanone], for which the IC50 is not above 1000 nM. In the case of `N[C@@H]1CCCN(C(=O)c2cc3c4c(c2)nc(-c2cc5ccccc5n2CCO)n4CCO3)C1` [Example 22, (R)-(3-aminopiperidin-1-yl)(2-(1-(2-hydroxyethyl)-1H-indol-2-yl)-3,4-dihydro-5-oxa-1,2a-diazaacenaphthylen-7-yl)methanone], the IC50 was not above 1000 nM. Under `COCCn1c(-c2nc3cc(C(=O)N4CCC[C@@H](N)C4)cc4c3n2CCO4)cc2cc(F)c(F)cc21` [Example 54, (R)-(3-aminopiperidin-1-yl)(2-(5,6-difluoro-1-(2-methoxyethyl)-1H-indol-2-yl)-3,4-dihydro-5-oxa-1,2a-diazaacenaphthylen-7-yl)methanone] stands 1000 to 10000 nM.
